# System: Echis ocellatus venom metalloproteinase activity
# Experiment: In vitro snake venom metalloproteinase assay (quenched fluorogenic substrate), drug screen
# Type: biochemical
# Details: 10 μM drug, control drug
# Procedure: FIG. 1. Inhibition of Echis ocellatus venom metalloproteinase activity by known matrix metalloproteinase inhibitors (MMPi) and rationally selected drugs based on their target site interactions. One microgram of whole venom per reaction was incubated with 10 μM of drug (dissolved in DMSO). Predicted metalloproteinase inhibitors were based on descriptors from a MedChemExpress commercial library and the literature. […] The percentage metalloproteinase activity was calculated from an endpoint read taken 45 minutes after substrate addition. The phospholipase inhibitor varespladib was included as a non-metalloproteinase inhibiting drug control.
# The snake venom metalloproteinase activity in the presence of inhibitors or vehicle control (DMSO), was measured using a quenched fluorogenic substrate (ES010, R&D Biosystems). […] The substrate was suspended in reaction buffer (150 mM NaCl, 50 mM Tris-HCl pH 7.5). Reactions consisted of 1 μg/reaction of venom (1 μg in 15 μl PBS) co-incubated with 0.91 μl of 1 mM of inhibitor, both added using the VIAFLO 384 (Integra). […] Strong hits were determined as those with less than 20% metalloproteinase activity of the venom and mediocre hits between 20 and 50%. […]
structure (smiles),measurement,value
CCc1c(C(=O)C(N)=O)c2c(OCC(=O)O)cccc2n1Cc1ccccc1 [varespladib],inhibitory effect against venom metalloproteinase activity,no inhibitory effect

# Source: patent US12285408B2, “Methods and compositions for the treatment of snake bite” (priority 2021, dated 2025)
